According to patent US9611248B2, “Chemical compounds” (Syngenta Participations AG, priority 2013, dated 2017):

Test system: a variety of test species
Experiment: Post-emergence herbicidal activity
Assay type: in vivo
Design: key to ABUTH (Abutilon theophrasti) damage score / AMARE (Amaranthus retroflexus) damage score / ALOMY (Alopecurus myosuroides) damage score / ECHCG (Echinochloa crus-galli) damage score / ZEAMX (Zea mays) damage score / SOLNI (Solanum nigrum) damage score: 0 = no damage to plant, 5 = total damage to plant
Settings: rate 1000 g/ha, evaluated after 13 days
In short: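 Plants grown for 8 days in pots were sprayed post-emergence with compound in acetone/water (50:50) containing 0.5% Tween 20. They were kept in a glasshouse at 24/16 °C day/night, 14 h light, 65% humidity, watered twice daily. Damage was scored after 13 days (0 none to 5 total).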

SMILES | ABUTH (Abutilon theophrasti) damage score | ALOMY (Alopecurus myosuroides) damage score | AMARE (Amaranthus retroflexus) damage score | ECHCG (Echinochloa crus-galli) damage score | SETFA (Setaria faberi) damage score | ZEAMX (Zea mays) damage score | SOLNI (Solanum nigrum) damage score
CCc1cc(N2C(=O)C(C)=C(Cl)C2O)ncc1Br (stereo not drawn) [AA50] | 3 | 2 | 2 | 3 | 3 | 1 | 
CC1=C(Cl)C(O)N(c2cc(C(C)C)c(C(=O)OC(C)C)cn2)C1=O (stereo not drawn) [AA9] | 4 | 2 | 4 | 1 | 1 | 1 | 
CC1=C(Cl)C(O)N(c2nccc(C(C)(C)C)n2)C1=O (racemic) [DA1] | 4 | 4 | 3 | 4 | 5 | 0 | 
COC1=C(C)C(=O)N(c2cc(C(C)(C)C#N)ncn2)C1O (racemic) [CD8] | 5 | 5 | 5 | 5 | 5 | 3 | 
COC1=C(C)C(=O)N(c2cc(C(F)(F)F)c(C#C[Si](C)(C)C)cn2)C1O (stereo not drawn) [AD15, 2-hydroxy-3-methoxy-4-methyl-1-[4-(trifluoromethyl)-5-(2-trimethylsilylethynyl)-2-pyridyl]-2H-pyrrol-5-one] | 3 | 3 | 5 | 4 | 5 | 2 | 
CC1=C(Cl)C(O)N(c2cc(C(F)(F)F)ccn2)C1=O (stereo not drawn) [AA35] |  | 2 | 5 | 4 | 4 | 0 | 5
COC1=C(C)C(=O)N(c2cc(C(F)(F)F)c(C(=O)NC(C)(C)C)cn2)C1O (stereo not drawn) [AD54] | 5 | 5 | 5 | 5 | 5 | 5 | 
COC1=C(C)C(=O)N(c2cc(C(F)(F)F)c(C)cn2)C1O (stereo not drawn) [AD28] | 5 | 4 | 5 | 5 | 5 | 4 | 
COC1=C(C)C(=O)N(c2cc(C(F)(F)F)c(/C(C)=C\C#N)cn2)C1O (stereo not drawn) [AD58, (Z)-3-[6-(2-hydroxy-3-methoxy-4-methyl-5-oxo-2H-pyrrol-1-yl)-4-(trifluoromethyl)-3-pyridyl]but-2-enenitrile] | 5 | 4 | 5 | 5 | 5 | 2 | 
COC1=C(C)C(=O)N(c2cc(C(F)(F)F)c(OCc3ccccc3)cn2)C1O (stereo not drawn) [AD82] | 4 | 2 | 5 | 3 | 5 | 1 | 
COC1=C(C)C(=O)N(c2ncc(Br)c(C(F)(F)F)c2Br)C1O (stereo not drawn) [AD29] | 0 | 1 | 0 | 0 | 0 | 1 | 
CC(C)(C)C1=C(Cl)C(O)N(c2cc(C(F)(F)F)ccn2)C1=O (stereo not drawn) [AA41] | 0 | 0 | 0 | 3 | 0 | 2 | 
COC1=C(C)C(=O)N(c2cc(C)c(-c3cccc(C#N)c3)cn2)C1O (stereo not drawn) [AD109] | 5 | 3 | 5 | 5 | 5 | 1 | 
COC1=C(C)C(=O)N(c2cc(C(F)(F)F)c(OCC3CCCO3)cn2)C1O (stereo not drawn) [AD57] | 5 | 4 | 5 | 5 | 5 | 1 | 
COC1=C(C)C(=O)N(c2nccc(C(C)(C)C)n2)C1O (racemic) [DD1] | 4 | 4 | 4 | 5 | 4 | 1 | 
CCOC(=O)c1cnc(N2C(=O)C(C)=C(Cl)C2O)cc1Cl (stereo not drawn) [AA47] | 1 | 1 | 0 | 2 | 3 | 1 | 
C=CCOC1=C(C)C(=O)N(c2cc(C(F)(F)F)ccn2)C1O (stereo not drawn) [AD42] | 5 | 4 | 5 | 5 | 5 | 2 | 
COC1=C(C)C(=O)N(c2cc(C)c(S(=O)(=O)NC(C)(C)C)cn2)C1O (stereo not drawn) [AD94] | 1 | 1 | 0 | 1 | 1 | 0 | 
CCN(CC)C(=O)c1cnc(N2C(=O)C(C)=C(OC)C2O)cc1C(F)(F)F (stereo not drawn) [AD92] | 5 | 4 | 4 | 5 | 4 | 3 | 
COC1=C(C)C(=O)N(c2cc(Cl)ncn2)C1O (racemic) [CD2] | 2 | 3 | 5 | 3 | 4 | 1 | 
COC1=C(C)C(=O)N(c2cc(C(F)(F)F)c(-c3ccccc3C)cn2)C1O (stereo not drawn) [AD132] | 5 | 2 | 5 | 4 | 5 | 2 | 
COC1=C(C)C(=O)N(c2cc(C(F)(F)Cl)ccn2)C1O (stereo not drawn) [AD67] | 5 | 4 | 5 | 5 | 5 | 1 | 
COC1=C(C)C(=O)N(c2cc(C(F)(F)F)c(-c3ccc(F)cc3)cn2)C1O (stereo not drawn) [AD59] | 5 | 4 | 5 | 4 | 5 | 1 | 
CC1=C(OCC(F)(F)F)C(O)N(c2cc(C(F)(F)F)ccn2)C1=O (stereo not drawn) [AD44, 2-hydroxy-4-methyl-3-(2,2,2-trifluoroethoxy)-1-[4-(trifluoromethyl)-2-pyridyl]-2H-pyrrol-5-one] | 5 | 3 | 5 | 4 | 5 | 1 | 
CCc1cc(N2C(=O)C(C)=C(OC)C2O)ncc1-c1ccccc1F (stereo not drawn) [AD105] | 5 | 2 | 5 | 3 | 4 | 1 | 
COC1=C(Br)C(=O)N(c2cc(C(C)(C)C)ncn2)C1O (racemic) [CE1] | 4 | 2 | 5 | 3 | 4 | 1 | 
COC1=C(C)C(=O)N(c2cc(C(F)(F)F)c(SC)cn2)C1O (stereo not drawn) [AD14, 2-hydroxy-3-methoxy-4-methyl-1-[5-methylsulfanyl-4-(trifluoromethyl)-2-pyridyl]-2H-pyrrol-5-one] | 5 | 3 | 4 | 5 | 5 | 1 | 
CCc1cc(N2C(=O)C(C)=C(OC)C2O)ncc1-c1cccc(F)c1 (stereo not drawn) [AD108] | 5 | 3 | 5 | 3 | 5 | 0 | 
CC1=C(Cl)C(O)N(c2cc(Cl)ccn2)C1=O (stereo not drawn) [AA33] |  | 1 | 5 | 2 | 3 | 0 | 5
